One assay has as its target T1, human B1R (Homo sapiens, UniProt P46663).
T1 construct: expressed in transfected cells; host or cells: CHO K1 cells
T1 sequence (P46663 1-353): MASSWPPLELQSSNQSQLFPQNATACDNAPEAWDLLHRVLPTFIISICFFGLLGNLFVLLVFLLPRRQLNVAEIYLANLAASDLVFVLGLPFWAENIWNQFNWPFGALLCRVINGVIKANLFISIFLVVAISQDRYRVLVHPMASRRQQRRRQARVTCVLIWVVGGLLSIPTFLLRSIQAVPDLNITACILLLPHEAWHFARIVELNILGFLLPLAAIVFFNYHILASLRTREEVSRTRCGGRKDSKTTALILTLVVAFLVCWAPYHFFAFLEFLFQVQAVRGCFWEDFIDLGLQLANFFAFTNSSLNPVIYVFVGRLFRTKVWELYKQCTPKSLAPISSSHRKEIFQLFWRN
Description: Functional investigation on the bradykinin 1 receptor (B1R), cell-based fluorescent calcium-mobilization assay (FLIPR/Novostar), human. Conditions: 10 μM test substance; CHO K1 cells stably transfected with human B1R gene; agonist Lys-Des-Arg9-bradykinin at EC80; % inhibition compared with maximum achievable inhibition; read-out: B1R antagonism, human [10 μM] % inhibition. In a few lines:
(§1)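 Stably transfected CHO K1 cells loaded with Fluo-4-AM; fluorescence peak read by FLIPR/Novostar (ex 488, em 540 nm). Test compounds at 10 μM give % activation vs Lys-Des-Arg9-BK (human) or Des-Arg9-BK (rat); after 6-20 min, agonist added at EC80 and % inhibition vs maximum achievable inhibition derived.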

Another assay concerns the target T2, B1R of rats (Rattus norvegicus, UniProt P97583).
T2 construct: expressed in transfected cells; host or cells: CHO K1 cells
T2 sequence (P97583 1-337): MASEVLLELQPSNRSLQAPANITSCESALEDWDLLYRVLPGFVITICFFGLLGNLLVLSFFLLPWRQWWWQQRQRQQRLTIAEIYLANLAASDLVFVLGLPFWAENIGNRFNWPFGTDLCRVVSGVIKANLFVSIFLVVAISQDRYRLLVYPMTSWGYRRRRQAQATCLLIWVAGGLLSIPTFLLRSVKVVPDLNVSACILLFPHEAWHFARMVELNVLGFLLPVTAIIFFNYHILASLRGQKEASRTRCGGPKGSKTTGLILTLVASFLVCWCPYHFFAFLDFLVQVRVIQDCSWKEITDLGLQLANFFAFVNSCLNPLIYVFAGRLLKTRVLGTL
Description: Functional investigation on the bradykinin 1 receptor (B1R), cell-based fluorescent calcium-mobilization assay (FLIPR/Novostar), rat. Conditions: 10 μM test substance; CHO K1 cells stably transfected with rat B1R gene; agonist Des-Arg9-bradykinin at EC80; % inhibition compared with maximum achievable inhibition; read-out: B1R antagonism, rat [10 μM] % inhibition. Summed up: as §1

Broadly, the inhibition is the drop in the measured response relative to a control, in per cent. For `COc1cc(C)c(S(=O)(=O)N2CCCCC2COCC(=O)N2CCC(CNC(=O)c3ccccc3)(N3CCN(C)CC3)CC2)c(C)c1` (stereo not shown) [Example 5, N-((1-(2-((1-(4-methoxy-2,6-dimethylphenylsulfonyl)piperidin-2-yl)methoxy)acetyl)-4-(4-methylpiperazin-1-yl)piperidin-4-yl)methyl)benzamide], the figures for the inhibition at 10 µM on human B1R and on B1R of rats were 102% and 104%, respectively.
The matching figures for `CN1CCN(C2(CNC(=O)c3ccccn3)CCN(C(=O)CC3CCCCN3S(=O)(=O)c3cccc(C(F)(F)F)c3)CC2)CC1` (stereo not shown) [Example 18, N-((4-(4-methylpiperazin-1-yl)-1-(2-(1-(3-(trifluoromethyl)phenylsulfonyl)-piperidin-2-yl)acetyl)piperidin-4-yl)methyl)picolinamide]: 97% and 17%.
The matching figures for `CN1CCN(C2(CNC(=O)c3ccncc3)CCN(C(=O)CC3CCCCN3S(=O)(=O)c3cccc(C(F)(F)F)c3)CC2)CC1` (stereo not shown) [Example 29, N-((4-(4-methylpiperazin-1-yl)-1-(2-(1-(3-(trifluoromethyl)phenylsulfonyl)-piperidin-2-yl)acetyl)piperidin-4-yl)methyl)isonicotinamide]: 67% and 33%.
The matching figures for `CN1CCN(C2(CNC(=O)c3cccnc3)CCN(C(=O)COCC3CCc4ccccc4N3S(=O)(=O)c3ccc(Cl)c(Cl)c3)CC2)CC1` (stereo not shown) [Example 40, N-((1-(2-((1-(3,4-dichlorophenylsulfonyl)-1,2,3,4-tetrahydroquinolin-2-yl)methoxy)acetyl)-4-(4-methylpiperazin-1-yl)piperidin-4-yl)methyl)nicotinamide]: 49% and 103%.
With `Cc1cc(S(=O)(=O)N2CCCCC2CCC(=O)N2CCC(CNC(=O)c3ccccn3)(N3CCN(C)CC3)CC2)c(C)cc1Cl` (stereo not shown) [Example 9, N-((1-(3-(1-(4-chloro-2,5-dimethylphenylsulfonyl)piperidin-2-yl)propanoyl)-4-(4-methylpiperazin-1-yl)piperidin-4-yl)methyl)picolinamide], the inhibition at 10 µM at human B1R was determined as 99%; on B1R of rats, 11%.
As for `CN1CCN(C2(CNC(=O)c3cccnc3)CCN(C(=O)CC3CCCCN3S(=O)(=O)c3cccc(C(F)(F)F)c3)CC2)CC1` (stereo not shown) [Example 39, N-((4-(4-methylpiperazin-1-yl)-1-(2-(1-(3-(trifluoromethyl)phenylsulfonyl)-piperidin-2-yl)acetyl)piperidin-4-yl)methyl)nicotinamide], the inhibition at 10 µM on human B1R came out at 11%; at B1R of rats, 94%.
Consider `Cc1cc(S(=O)(=O)N2CCCCC2CCC(=O)N2CCC(CNC(=O)c3ccccc3)(N3CCN(C)CC3)CC2)c(C)cc1Cl` (stereo not shown) [Example 6, N-((1-(3-(1-(4-chloro-2,5-dimethylphenylsulfonyl)piperidin-2-yl)propanoyl)-4-(4-methylpiperazin-1-yl)piperidin-4-yl)methyl)benzamide], for which the inhibition at 10 µM stood at 99% on human B1R and 24% on B1R of rats.
Take `CC(=O)NCC1(N2CCN(C)CC2)CCN(C(=O)CC2CCCCN2S(=O)(=O)c2cccc(C(F)(F)F)c2)CC1` (stereo not shown) [Example 12, N-((4-(4-methylpiperazin-1-yl)-1-(2-(1-(3-(trifluoromethyl)phenylsulfonyl)-piperidin-2-yl)acetyl)piperidin-4-yl)methyl)acetamide]: the inhibition at 10 µM turned out to be 80% at human B1R and 13% at B1R of rats.
Take `COc1cc(C)c(S(=O)(=O)N2c3ccccc3C[C@H]2COCC(=O)N2CCC(CNC(=O)c3ccncc3)(N3CCN(C4CC4)CC3)CC2)c(C)c1` [Example 45, (S)—N-((4-(4-Cyclopropylpiperazin-1-yl)-1-(2-((1-(4-methoxy-2,6-dimethylphenylsulfonyl)indolin-2-yl)methoxy)acetyl)piperidin-4-yl)methyl)isonicotinamide]: the inhibition at 10 µM on human B1R stood at 100%; on B1R of rats, 102%.
The matching figures for `CN1CCN(C2(CNC(=O)Cc3ccccc3)CCN(C(=O)COCC3CCc4ccccc4N3S(=O)(=O)c3ccc(Cl)c(Cl)c3)CC2)CC1` (stereo not shown) [Example 13, N-((1-(2-((1-(3,4-dichlorophenylsulfonyl)-1,2,3,4-tetrahydroquinolin-2-yl)methoxy)acetyl)-4-(4-methylpiperazin-1-yl)piperidin-4-yl)methyl)-2-phenylacetamide]: 104% and 52%.
For `CN1CCN(C2(CNC(=O)c3ccccn3)CCN(C(=O)COCC3CCc4ccccc4N3S(=O)(=O)c3ccc(Cl)c(Cl)c3)CC2)CC1` (stereo not shown) [Example 20, N-((1-(2-((1-(3,4-dichlorophenylsulfonyl)-1,2,3,4-tetrahydroquinolin-2-yl)-methoxy)acetyl)-4-(4-methylpiperazin-1-yl)piperidin-4-yl)methyl)picolinamide] the same measures were 91% and 60%.
With `Cc1cccc(Cl)c1S(=O)(=O)N(CCOCC(=O)N1CCC(CNC(=O)c2ccncc2)(N2CCN(C3CC3)CC2)CC1)C1CC1` [Example 43, N-((1-(2-(2-(2-Chloro-N-cyclopropyl-6-methylphenylsulfonamido)ethoxy)-acetyl)-4-(4-cyclopropylpiperazin-1-yl)piperidin-4-yl)methyl)-isonicotinamide], the inhibition at 10 µM at human B1R is 100%; at B1R of rats, 103%.
The matching figures for `COc1cc(C)c(S(=O)(=O)N2CCCCC2COCC(=O)N2CCC(CNC(C)=O)(N3CCN(C)CC3)CC2)c(C)c1` (stereo not shown) [Example 27, N-((1-(2-((1-(4-methoxy-2,6-dimethylphenylsulfonyl)piperidin-2-yl)methoxy)acetyl)-4-(4-methylpiperazin-1-yl)piperidin-4-yl)methyl)acetamide]: 103% and 102%.
For `COc1cc(C)c(S(=O)(=O)N(C)CCOCC(=O)N2CCC(CNC(C)=O)(N3CCN(c4ccncc4)CC3)CC2)c(C)c1` [Example 41, N-((1-(2-(2-(4-methoxy-N,2,6-trimethylphenylsulfonamido)ethoxy)acetyl)-4-(4-(pyridin-4-yl)piperazin-1-yl)piperidin-4-yl)methyl)acetamide] the same measures were 100% and 102%.

Values taken from patent US8541573B2, “Substituted sulfonamide compounds” (Gruenenthal GmbH, priority 2008, dated 2013).
